Experimental findings from patent publication US20050113315A1, “Glucopyranosyloxybenzylbenzene derivatives, medicinal compositions containing the same and intermediates in the production thereof” (KISSEI PHARMACEUTICAL CO., LTD., priority 2000, published 2005) are described below.

One data set has as its target T1, human SGLT2 (Homo sapiens, UniProt P31639, I433V).
T1 construct: expressed in transfected cells; host or cells: COS-7 cells (RIKEN CELL BANK RCB0539), transient electroporation with KL29
T1 sequence (P31639 1-672 I433V): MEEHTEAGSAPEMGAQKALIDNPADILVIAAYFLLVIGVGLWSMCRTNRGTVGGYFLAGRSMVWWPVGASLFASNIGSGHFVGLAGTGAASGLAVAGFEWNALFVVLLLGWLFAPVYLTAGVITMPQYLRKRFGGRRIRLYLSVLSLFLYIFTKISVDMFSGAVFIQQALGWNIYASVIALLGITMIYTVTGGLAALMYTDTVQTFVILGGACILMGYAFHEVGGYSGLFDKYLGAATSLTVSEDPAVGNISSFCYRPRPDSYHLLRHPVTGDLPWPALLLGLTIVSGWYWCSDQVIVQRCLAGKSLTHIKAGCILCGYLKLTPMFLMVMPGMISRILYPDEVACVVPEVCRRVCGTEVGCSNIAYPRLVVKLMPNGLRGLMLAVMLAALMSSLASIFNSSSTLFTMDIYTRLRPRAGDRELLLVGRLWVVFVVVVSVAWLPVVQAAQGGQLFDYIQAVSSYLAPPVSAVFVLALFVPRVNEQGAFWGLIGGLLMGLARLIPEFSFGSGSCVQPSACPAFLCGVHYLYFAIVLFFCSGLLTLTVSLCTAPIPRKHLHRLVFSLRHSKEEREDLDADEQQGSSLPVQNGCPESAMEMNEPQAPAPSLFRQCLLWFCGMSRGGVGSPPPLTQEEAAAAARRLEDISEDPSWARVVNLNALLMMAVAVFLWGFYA
Kind of data set: Assay for inhibitory effect on human SGLT2 activity (uptake of methyl-α-D-glucopyranoside in COS-7 cells transiently expressing human SGLT2). As to conditions: uptake of methyl-α-D-(U-14C)-glucopyranoside, 37° C., 2 hours. Type of data set: cell-based. As to the method:
Assay for Inhibitory Effect on Human SGLT2 Activity
1) Construction of the Plasmid Vector Expressing Human SGLT2
Preparation of the cDNA library for PCR amplification was performed by reverse transcription of a total RNA deprived from human kidney (Ori gene) with oligo dT as the primer, using […] Preamplification System (Gibco-BRL: LIFE TECHNOLOGIES). The DNA fragment coding for human SGLT2 was amplified by the PCR reaction, in which the human kidney cDNA library described above was used as the template and the following oligo nucleotides 0702F and 0712R, presented as Sequence Number 1 and 2 respectively, were used as the primers. The amplified DNA fragment was ligated into pCR-Blunt (Invitrogen), a vector for cloning, according to standard method of the kit. The Escherichia coli HB101 (Toyobo) was transformed according to usual method and then selection of the transformants was performed on the LB agar medium containing 50 μg/mL of kanamycin. After the plasmid DNA was extracted and purified from the one of the transformants, amplifying of the DNA fragment coding for human SGLT2 was performed by the PCR reaction, in which the following oligo nucleotides 0714F and 0715R, presented as Sequence Number 3 and 4 respectively, were used as the primers. The amplified DNA fragment was digested with restriction enzymes, Xho I and Hind III, and then purified with Wizard Purification System (Promega). This purified DNA fragment was inserted at the corresponding restriction sites of pcDNA3.1 (−) Myc/His-B (Invitrogen), a vector for expressing of fusion protein. The Escherichia coli HB101 was transformed according to usual method and then selection of the transformant was performed on the LB agar medium containing 100 μg/mL of ampicillin. After the plasmid DNA was extracted and purified from this transformant, the base sequence of the DNA fragment inserted at the multi-cloning sites of pcDNA3.1 (−) Myc/His-B was analyzed. […] Sequentially, a clone in which valine is substituted for the isoleucine-433 was obtained. This plasmid vector expressing human SGLT2 in which the peptide presented as Sequence Number 5 is fused to the carboxyl terminal alanine residue was designated KL29.
2) Preparation of the Cells Expressing Transiently Human SGLT2
KL29, the plasmid coding human SGLT2, was transfected into COS-7 cells (RIKEN CELL BANK RCB0539) by electroporation. Electroporation was performed with GENE PULSER II (Bio-Rad Laboratories) under the condition: 0.290 kV, 975 μF, 2×10^6 cells of COS-7 cell and 20 μg of KL29 in 500 μL of OPTI-MEM I medium (Gibco-BRL: LIFE TECHNOLOGIES) in the 0.4 cm type cuvette. After the gene transfer, the cells were harvested by centrifugation and resuspended with OPTI-MEM I medium (1 mL/cuvette). To each well in 96-wells plate, 125 μL of this cell suspension was added. After overnight culture at 37° C. under 5% CO2, 125 μL of DMEM medium which is containing 10% of fetal bovine serum (Sanko Jyunyaku), 100 units/mL sodium penicillin G (Gibco-BRL: LIFE TECHNOLOGIES), 100 μg/mL streptomycin sulfate (Gibco-BRL: LIFE TECHNOLOGIES) was added to each well. After a culture until the following day, these cells were used for the measurement of the inhibitory activity against the uptake of methyl-α-D-glucopyranoside.
3) Measurement of the Inhibitory Activity Against the Uptake of methyl-α-D-glucopyranoside […]

The next data set has as its system ICR mice. Kind of data set: Acute toxicity test. As to conditions: male ICR mice, 300 mg/kg subcutaneous, 5 animals in each group, observation for 24 hours. Type of data set: in vivo. As to the method:
A mixture (saline:polyethylene glycol 400:ethanol=5:4:1) was added to a test compound to prepare 30 mg/mL solution. As experimental animals, 5 week old male ICR mice (CLEA JAPAN, INC. 29-35 g, 5 animals in each group), which were fasted for 4 hours, were used. The above solution was subcutaneously administered at a dose of 10 mL/kg (300 mg/kg) to the above experimental animals and then observation for 24 hours was performed.

The test system of a further data set is SD rats. Kind of data set: Assay for the facilitatory effect on urinary glucose excretion. As to conditions: male SD rats, oral glucose 2 g/kg, urine collected 24 hours. Format: in vivo, rat. As to the method: Assay for the Facilitatory Effect on Urinary Glucose Excretion
As experimental animals, overnight fasted SD rats (Japan SLC. Inc., male, 7 weeks of age, 180-220 g) were used. Ten mg of a test compound was suspended or dissolved in 300 μL of ethanol and dissolved by adding 1.2 mL of polyethylene glycol 400 and 1.5 mL of saline to prepare a 3.3 mg/mL solution. A portion of this solution was diluted with a mixture (saline:polyethylene glycol 400:ethanol=5:4:1) to prepare 3.3, 0.33 and 0.033 mg/mL solution. After body weights of the rats were measured, the solution of test compound was intravenously injected to the tail vein at a dose of 3 mL/kg (10, 1, 0.1 mg/kg). For control, only a mixture (saline:polyethylene glycol 400:ethanol=5:4:1) was intravenously injected to the tail vein at a dose of 3 mL/kg. Immediately after intravenous injection to the tail vein, 200 g/L of aqueous glucose solution was orally administered to the rats at a dose of 10 mL/kg (2 g/kg). The intravenous injection to the tail vein was performed with 26 G injection needle and 1 mL syringe. The oral administration was performed with gastric tube for rat and 2.5 mL syringe. The head count in each group was 3. Collection of urine was performed in metabolic cage after the administration of glucose was finished. The sampling time for collection of urine was 24 hours after the administration of glucose. After the collection of urine was finished, the urine volume was recorded and the urinary glucose concentration was measured. The glucose concentration was measured with a kit for laboratory test: Glucose B-Test WAKO (Wako Pure Chemical Industries, Ltd.). The amount of urinary glucose excretion during 24 hours per 200 g of body weight was calculated from the urine volume, urinary glucose concentration and body weight.

What is called IC50 is the concentration that inhibits the measured activity by half. Compound `OC/C=C/c1ccc(Cc2ccccc2O[C@@H]2O[C@H](CO)[C@@H](O)[C@H](O)[C@H]2O)cc1` [Example 19, (E)-2-[4-(3-hydroxy-1-prop-1-ene-1-yl)benzyl]phenyl β-D-glucopyranoside] had a half-maximal inhibitory concentration (IC50) against human SGLT2 of 120 nM.
Regarding `CCc1ccc(Cc2ccc(N)cc2O[C@@H]2O[C@H](CO)[C@@H](O)[C@H](O)[C@H]2O)cc1` [Example 29, 5-Amino-2-(4-ethylbenzyl)phenyl β-D-glucopyranoside], at human SGLT2, it took 10 nM to reach half-maximal inhibition (IC50).
On to `Cc1cc(C)c(Cc2ccc(CCCO)cc2)c(O[C@@H]2O[C@H](CO)[C@@H](O)[C@H](O)[C@H]2O)c1` [Example 30, 2-[4-(3-Hydroxypropyl)benzyl]-3,5-dimethylphenyl β-D-glucopyranoside], for which the concentration for half-maximal inhibition (IC50) at human SGLT2 was found to be 30 nM.
Same read-out and setting: then `Cc1cc(C)c(Cc2ccc(CCO)cc2)c(O[C@@H]2O[C@H](CO)[C@@H](O)[C@H](O)[C@H]2O)c1` [Example 31, 2-[4-(2-Hydroxyethyl)benzyl]-3,5-dimethylphenyl β-D-glucopyranoside], with 59 nM.
`COc1ccc(Cc2c(C)cc(C)cc2O[C@@H]2O[C@H](CO)[C@@H](O)[C@H](O)[C@H]2O)cc1` [Example 37, 2-(4-Methoxybenzyl)-3,5-dimethylphenyl β-D-glucopyranoside]: in the data set with ICR mice, the Death number is 0/5. For the same compound, the “Amount of Urinary Glucose Excretion” value in the data set on SD rats (0.1 mg/kg intravenous) is on record as 15 mg/24 hours/200 g body weight; in the data set on SD rats (1 mg/kg intravenous) it was 125 mg/24 hours/200 g body weight; with SD rats (10 mg/kg intravenous), 288 mg/24 hours/200 g body weight. At human SGLT2, this compound registered an IC50 of 290 nM.
